Data taken from patent publication US6630075B2, “Use of fluorinated ketones in fire extinguishing compositions” (3M Innovative Properties Company, priority 1999, dated 2003).

Test: Micro-Cup Burner Test (extinguishing concentration; Mass Ratio Calculation vs HALON 1211)
Conditions: for Mass Ratio to HALON™ 1211: calculated from extinguishing volume % and molecular weight relative to HALON 1211 (165 g/mole); for Ext. Conc. (vol %): volume % in air required to extinguish the flame within an average time of 30 seconds or less, propane fuel
From the text: The Micro-Cup Burner Test is a laboratory test which measures the extinguishing ability of an agent based on the quantity of agent required to extinguish a fire under the following test conditions. The Micro-Cup Burner Test utilizes a quartz concentric-tube laminar-diffusion flame burner (micro-cup burner, of similar design to the above-described cup apparatus) aligned vertically with all flows upward. A fuel, typically propane unless otherwise specified, flows at 10.0 sccm (standard cubic centimeters per minute) through a 5-mm I.D. inner quartz tube which is centered in a 15-mm I.D. quartz chimney. The chimney extends 4.5 cm above the inner tube. Air flows through the annular region between the inner tube and the chimney at 1000 sccm. Prior to the addition of extinguishing composition, a visually stable flame is supported on top of the inner tube, and the resulting combustion products flow out through the chimney. An extinguishing composition to be evaluated is introduced into the air stream upstream of the burner. Liquid compositions are introduced by a syringe pump (which is calibrated to within 1%) and are volatilized in a heated trap. Gaseous compositions are introduced via a mass-flow controller to the air stream upstream from the burner. For consistency, the air-gaseous composition mixture then flows through the heated trap prior to its introduction to the flame burner. All gas flows are maintained by electronic mass-flow controllers which are calibrated to within 2%. The fuel is ignited to produce a flame and is allowed to burn for 90 seconds. After 90 seconds, a specific flow rate of composition is introduced, and the time required for the flame to be extinguished is recorded. The reported extinguishing concentrations are the recorded volume % of extinguishing composition in air required to extinguish the flame within an average time of 30 seconds or less.
The above-mentioned cup burner test measures the performance of an extinguishing composition by determining the minimum volume percent of composition in air required to extinguish a test fire. However, it is often desirable to directly compare the fire performance of an experimental extinguishing composition (e.g., a fluorinated ketone) against the performance of a state-of-the-art extinguishing composition, such as HALON™ 1211 fire extinguishing agent (CF2ClBr, a bromochlorofluorocarbon). One way to make such a comparison is to derive the mass ratio of experimental composition to HALON™ 1211 fire extinguishing agent from the volume percentages of each composition required for extinguishing. The mass ratio can be calculated by dividing the experimental composition's extinguishing volume percent by the HALON™ 1211 agent's extinguishing volume percent and multiplying the resulting quotient (which, according to the ideal gas law, also represents the ratio of mole percents) times the weight average molecular weight of the experimental composition divided by the molecular weight of HALON™ 1211 agent (165 g/mole).
In Comparative Example C1, the extinguishing concentration (volume % in air) of HALON™ 1211 fire extinguishing agent was determined as using the Micro-Cup Burner Test.
In Examples 1-16, the extinguishing concentration of several perfluorinated ketones was also determined using the Micro-Cup Burner Test. The mass ratio as compared to HALON™ 1211 fire extinguishing agent was then calculated using the Mass Ratio Calculation.
In Comparative Examples C2-C11, various fluorinated extinguishing compositions known in the art (hydrofluorocarbons, perfluorocarbons, hydrochlorofluorocarbons, hydrofluoroethers, and iodofluorocarbons) were evaluated for their extinguishing concentration, and subsequently their mass ratios were calculated with respect to HALON™ 1211 agent. […]

Compound | Mass Ratio to HALON™ 1211 | Ext. Conc. (vol %)
O=C(CC(=O)C(F)(F)F)C(F)(F)F [Example 10, 1,1,1,5,5,5-hexafluoropentan-2,4-dione] | 2.55 | 7.3
FC(F)(Cl)Br [Comparative Example C1, bromochlorodifluoromethane, reference compound] | 1.00 | 3.6
CC(=O)C(F)(C(F)(F)F)C(F)(F)F [Comparative Example C12, 3,4,4,4-tetrafluoro-3-trifluoromethylbutan-2-one, reference compound] | 2.42 | 6.8
O=C(C(F)(F)F)C(F)(F)C(F)(F)F [Example 13, 1,1,1,3,3,4,4,4-octafluorobutan-2-one] | 2.68 | 7.4
O=C(C(F)(F)Cl)C(F)(C(F)(F)F)C(F)(F)F [Example 8, 1-chloro-1,1,3,4,4,4-hexafluoro-3-trifluoromethyl-butan-2-one] | 2.23 | 4.7
O=C(C(F)(F)F)C(F)(C(F)(F)F)C(F)(F)F [Example 5, 1,1,1,3,4,4,4-heptafluoro-3-trifluoromethylbutan-2-one] | 2.19 | 4.9
O=C(C(F)(F)F)C(F)(F)C(F)(F)C(F)(F)C(F)(F)C(F)(F)C(F)(F)F [Example 4, 1,1,1,3,3,4,4,5,5,6,6,7,7,8,8,8-hexadecafluorooctan-2-one] | 2.17 | 3.1
FC(F)(F)I [Comparative Example C2, iodotrifluoromethane, reference compound] | 1.14 | 3.5
FC(F)(F)CC(F)(F)F [Comparative Example C3, 1,1,1,3,3,3-hexafluoropropane, reference compound] | 1.61 | 6.3
O=C(C(=O)C(F)(C(F)(F)F)C(F)(F)F)C(F)(C(F)(F)F)C(F)(F)F [Example 11, 1,1,1,2,5,6,6,6-octafluoro-2,5-bis(trifluoromethyl)hexan-3,4-dione] | 2.57 | 4.0
O=C(C(F)(F)C(F)(F)C(F)(F)F)C(F)(F)C(F)(F)C(F)(F)F [Example 12, 1,1,1,2,2,3,3,5,5,6,6,7,7,7tetradecafluoroheptan-4-one] | 2.64 | 4.3
O=C(C(F)(F)C(F)F)C(F)(C(F)(F)F)C(F)(F)F [Example 6, 1,1,1,2,4,4,5,5-octafluoro-2-trifluoromethylpentan-3-one] | 2.20 | 4.4
FC(F)(F)C(F)(F)C(F)(F)C(F)(F)C(F)(F)C(F)(F)F [Comparative Example C8, perfluoro-n-hexane, reference compound] | 2.27 | 4.0
FC(F)(F)C(F)(F)C(F)(F)F [Comparative Example C6, perfluoro-n-propane, reference compound] | 2.05 | 6.5
CC(=O)C(F)(F)C(F)(F)C(F)(F)C(F)(F)F [Comparative Example C13, perfluorobutyl methyl ketone, reference compound] | 2.77 | 6.3
O=C(C(F)(F)C(F)(F)F)C(F)(F)C(F)(F)C(F)(F)F [Example 9, 1,1,1,2,2,4,4,5,5,6,6,6-dodecafluorohexan-3-one] | 2.39 | 4.5
COC(F)(F)C(F)(F)C(F)(F)C(F)(F)F [Comparative Example C10, perfluorobutyl Methyl Ether, reference compound] | 2.52 | 6.1
COC(F)(C(F)(F)F)C(F)(C(F)(F)F)C(F)(F)F (stereo not shown) [Comparative Example C9, 1,1,1,2,3,4,4,4-octafluoro-3-trifluoromethyl-2-methoxybutane, reference compound] | 2.27 | 4.5
O=C1C(F)(F)C(F)(F)C(F)(F)C(F)(F)C1(F)F [Example 15, decafluorocyclohexanone] | 2.80 | 6.0
FC(F)(F)C(F)(F)C(F)(F)C(F)(F)F [Comparative Example C7, perfluoro-n-butane, reference compound] | 2.12 | 5.3
O=C(C(F)(C(F)(F)F)C(F)(F)F)C(F)(C(F)(F)F)C(F)(F)F [Example 2, 1,1,1,2,4,5,5,5,6,6,6-octafluoro-2,4-bis(trifluoromethyl)pentan-3-one] | 2.03 | 3.3
O=C(C(F)(F)C(F)(F)OC(F)(F)F)C(F)(C(F)(F)F)C(F)(F)F [Example 14, 1,1,2,2,4,5,5,5-octafluoro-1-trifluoromethoxy-4-trifluoromethylpentan-3-one] | 2.76 | 4.3
COC(F)(F)C(F)(F)C(F)(F)F [Comparative Example C11, 1,1,1,2,2,3,3-heptafluoro-3-methoxypropane, reference compound] | 2.52 | 7.5
O=C(C(F)(F)C(F)(F)C(F)(F)C(F)(F)F)C(F)(C(F)(F)F)C(F)(F)F [Example 16, 1,1,1,2,4,4,5,5,6,6,7,7,7-tridecafluoro-2-trifluoromethylheptan-3-one] | 3.00 | 4.3
O=C(C(F)(F)C(F)(F)C(F)(F)F)C(F)(C(F)(F)F)C(F)(F)F [Example 7, 1,1,1,2,4,4,5,5,6,6,6-undecafluoro-2-trifluoromethylhexan-3-one] | 2.21 | 3.6
FC(C(F)(F)F)C(F)(F)F [Comparative Example C5, 1,1,1,2,3,3,3-heptafluoropropane, reference compound] | 1.90 | 6.6
